From paper PMC5766581, “NF-κB inducing kinase is a therapeutic target for systemic lupus erythematosus” (Nature Communications, 2018)

Key:
Test in all cases: SelectScreen kinase panel
Assay type in all cases: biochemical
Cot = target: T1, Cot (Homo sapiens, UniProt P41279)
T1 construct: purchased Invitrogen / ThermoFisher SelectScreen
Experimental: (§1) The ability of NIK to catalyze the hydrolysis of adenosine-5′-triphosphate (ATP) was monitored using the Transcreener ADP (adenosine-5′-diphosphate) assay (Bell Brook Labs, Fitchburg, WI). Purified human NIK kinase domain (a.a. 340–694) (0.5 nM) or mouse NIK kinase domain (a.a. 329–675) (1 nM) derived from a baculovirus-infected insect cell expression system was incubated with test compounds for 0.5–2 h in 50 mM HEPES buffer (pH 7.2) containing 10 mM MgCl2, 2 mM dithiothreitol, 10 μM ATP, 0.01% Triton X-100, 0.1% gamma-globulins from bovine blood, 1% dimethylsulfoxide (DMSO), 7 μg/mL ADP antibody and 5 nM ADP-MR121 633 tracer. Reactions were quenched by the addition of 20 mM EDTA and 0.01% Brij 35. The tracer bound to the antibody was displaced by the ADP generated during the NIK reaction, which caused a decrease in fluorescence polarization that was measured by laser excitation at 633 nm with a Fluorescence Correlation Spectroscopy Plus reader (Evotec AG). Equilibrium dissociation constant (Ki) values for NIK inhibitors are calculated from plots of activity vs. inhibitor concentration using Morrison’s quadratic equation that accounts for the potential of tight binding, and by also applying the conversion factor that accounted for competitive inhibition and the concentration of substrate used in the assay relative to its Michaelis constant (Km). The Ki values with hPKD1 (PKCμ) were determined using the same assay conditions as for NIK. Ki measurements for hKHS1 and hLRRK2, as well as broad kinase selectivity profiling for SMI1, were carried out by Invitrogen using their SelectScreen kinase assay panel (ThermoFisher Scientific, Madison, WI). The vendor offered two types of kinase activity assays, a peptide phosphorylation assay (Z′-LYTE) and an ADP quantitation assay (Adapta), as well as one type of kinase ATP site competitive binding assay (LanthaScreen). See vendor web site for technology and protocol details for each specific kinase assay.
(§2) The average % Inhibition of each kinase is reported (Supplementary Table 1).

MLK1 = target: T2, MLK1 (Homo sapiens, UniProt P80192)
T2 construct: purchased Invitrogen / ThermoFisher SelectScreen
Experimental: as §1, §2

eEF-2K = target: T3, eEF-2K (Homo sapiens, UniProt O00418)
T3 construct: purchased Invitrogen / ThermoFisher SelectScreen
Experimental: as §1, §2

PAK6 = target: T4, PAK6 (Homo sapiens, UniProt Q9NQU5)
T4 construct: purchased Invitrogen / ThermoFisher SelectScreen
Experimental: as §1, §2

GRK6 = target: T5, GRK6 (Homo sapiens, UniProt P43250)
T5 construct: purchased Invitrogen / ThermoFisher SelectScreen
Experimental: as §1, §2

Rse = target: T6, Rse (Homo sapiens, UniProt Q06418)
T6 construct: purchased Invitrogen / ThermoFisher SelectScreen
Experimental: as §1, §2

GRK5 = target: T7, GRK5 (Homo sapiens, UniProt P34947)
T7 construct: purchased Invitrogen / ThermoFisher SelectScreen
Experimental: as §1, §2

IRAK1 = target: T8, IRAK1 (Homo sapiens, UniProt P51617)
T8 construct: purchased Invitrogen / ThermoFisher SelectScreen
Experimental: as §1, §2

SGK2 = target: T9, SGK2 (Homo sapiens, UniProt Q9HBY8)
T9 construct: purchased Invitrogen / ThermoFisher SelectScreen
Experimental: as §1, §2

RSK1 = target: T10, RSK1 (Homo sapiens, UniProt Q15418)
T10 construct: purchased Invitrogen / ThermoFisher SelectScreen
Experimental: as §1, §2

SGK1 = target: T11, SGK1 (Homo sapiens, UniProt O00141)
T11 construct: purchased Invitrogen / ThermoFisher SelectScreen
Experimental: as §1, §2

CLK2 = target: T12, CLK2 (Homo sapiens, UniProt P49760)
T12 construct: purchased Invitrogen / ThermoFisher SelectScreen
Experimental: as §1, §2

GRK3 = target: T13, GRK3 (Homo sapiens, UniProt P35626)
T13 construct: purchased Invitrogen / ThermoFisher SelectScreen
Experimental: as §1, §2

PRK1 = target: T14, PRK1 (Homo sapiens, UniProt Q16512)
T14 construct: purchased Invitrogen / ThermoFisher SelectScreen
Experimental: as §1, §2

FGFR1 = target: T15, FGFR1 (Homo sapiens, UniProt P11362)
T15 construct: purchased Invitrogen / ThermoFisher SelectScreen
Experimental: as §1, §2

P38_beta = target: T16, P38_beta (Homo sapiens, UniProt Q15759)
T16 construct: purchased Invitrogen / ThermoFisher SelectScreen
Experimental: as §1, §2

MKNK1 = target: T17, MKNK1 (Homo sapiens, UniProt Q9BUB5)
T17 construct: purchased Invitrogen / ThermoFisher SelectScreen
Experimental: as §1, §2

CSK = target: T18, CSK (Homo sapiens, UniProt P41240)
T18 construct: purchased Invitrogen / ThermoFisher SelectScreen
Experimental: as §1, §2

PI3K- G = target: T19, PI3K- G (Homo sapiens, UniProt P48736)
T19 construct: purchased Invitrogen / ThermoFisher SelectScreen
Experimental: as §1, §2

PAK3 = target: T20, PAK3 (Homo sapiens, UniProt O75914)
T20 construct: purchased Invitrogen / ThermoFisher SelectScreen
Experimental: as §1, §2

BrSK1 = target: T21, BrSK1 (Homo sapiens, UniProt Q8TDC3)
T21 construct: purchased Invitrogen / ThermoFisher SelectScreen
Experimental: as §1, §2

PKC-epsilon = target: T22, PKC-epsilon (Homo sapiens, UniProt Q02156)
T22 construct: purchased Invitrogen / ThermoFisher SelectScreen
Experimental: as §1, §2

PKC_zeta = target: T23, PKC_zeta (Homo sapiens, UniProt Q05513)
T23 construct: purchased Invitrogen / ThermoFisher SelectScreen
Experimental: as §1, §2

IKK_epsilon = target: T24, IKK_epsilon (Homo sapiens, UniProt Q14164)
T24 construct: purchased Invitrogen / ThermoFisher SelectScreen
Experimental: as §1, §2

KDR = target: T25, KDR (Homo sapiens, UniProt P35968)
T25 construct: purchased Invitrogen / ThermoFisher SelectScreen
Experimental: as §1, §2

p38_alpha = target: T26, p38_alpha (Homo sapiens, UniProt Q16539)
T26 construct: purchased Invitrogen / ThermoFisher SelectScreen
Experimental: as §1, §2

Flt4 = target: T27, Flt4 (Homo sapiens, UniProt P35916)
T27 construct: purchased Invitrogen / ThermoFisher SelectScreen
Experimental: as §1, §2

SPHK1 = target: T28, SPHK1 (Homo sapiens, UniProt Q9NYA1)
T28 construct: purchased Invitrogen / ThermoFisher SelectScreen
Experimental: as §1, §2

Bmx = target: T29, Bmx (Homo sapiens, UniProt P51813)
T29 construct: purchased Invitrogen / ThermoFisher SelectScreen
Experimental: as §1, §2

FGFR3 = target: T30, FGFR3 (Homo sapiens, UniProt P22607)
T30 construct: purchased Invitrogen / ThermoFisher SelectScreen
Experimental: as §1, §2

PhK_gamm1 = target: T31, PhK_gamm1 (Homo sapiens, UniProt Q16816)
T31 construct: purchased Invitrogen / ThermoFisher SelectScreen
Experimental: as §1, §2

CHK2 = target: T32, CHK2 (Homo sapiens, UniProt O96017)
T32 construct: purchased Invitrogen / ThermoFisher SelectScreen
Experimental: as §1, §2

T22 sequence (Q02156 whole entry): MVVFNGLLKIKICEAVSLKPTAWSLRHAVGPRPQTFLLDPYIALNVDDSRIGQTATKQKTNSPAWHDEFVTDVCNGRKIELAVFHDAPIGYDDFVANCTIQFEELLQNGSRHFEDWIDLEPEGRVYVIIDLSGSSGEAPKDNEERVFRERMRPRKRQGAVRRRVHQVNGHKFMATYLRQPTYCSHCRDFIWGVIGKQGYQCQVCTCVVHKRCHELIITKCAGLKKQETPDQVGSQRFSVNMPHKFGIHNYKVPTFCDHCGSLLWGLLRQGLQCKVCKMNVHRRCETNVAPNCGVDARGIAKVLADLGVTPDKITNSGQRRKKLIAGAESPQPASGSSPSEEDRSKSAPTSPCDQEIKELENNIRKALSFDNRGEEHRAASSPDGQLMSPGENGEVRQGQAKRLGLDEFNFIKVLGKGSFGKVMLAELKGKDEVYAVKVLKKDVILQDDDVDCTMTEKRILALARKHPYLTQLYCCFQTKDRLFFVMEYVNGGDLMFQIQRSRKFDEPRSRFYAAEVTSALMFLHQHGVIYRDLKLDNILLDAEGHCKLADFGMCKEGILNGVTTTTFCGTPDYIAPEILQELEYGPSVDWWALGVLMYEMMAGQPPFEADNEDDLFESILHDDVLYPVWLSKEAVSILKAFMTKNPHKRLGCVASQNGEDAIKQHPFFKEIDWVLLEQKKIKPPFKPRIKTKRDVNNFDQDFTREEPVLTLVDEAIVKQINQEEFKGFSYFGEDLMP
T11 sequence (O00141 whole entry): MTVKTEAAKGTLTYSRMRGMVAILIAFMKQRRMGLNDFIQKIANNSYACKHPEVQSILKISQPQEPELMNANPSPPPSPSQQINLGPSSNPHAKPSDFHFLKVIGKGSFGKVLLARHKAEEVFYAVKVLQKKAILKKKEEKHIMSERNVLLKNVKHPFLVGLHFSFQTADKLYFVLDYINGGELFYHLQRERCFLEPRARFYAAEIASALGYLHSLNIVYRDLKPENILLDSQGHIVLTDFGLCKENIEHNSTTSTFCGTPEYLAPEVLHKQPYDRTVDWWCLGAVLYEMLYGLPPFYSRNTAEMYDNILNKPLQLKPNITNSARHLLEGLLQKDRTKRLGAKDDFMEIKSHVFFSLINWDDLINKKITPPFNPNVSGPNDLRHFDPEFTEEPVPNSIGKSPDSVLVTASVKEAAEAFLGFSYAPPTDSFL
T26 sequence (Q16539 whole entry): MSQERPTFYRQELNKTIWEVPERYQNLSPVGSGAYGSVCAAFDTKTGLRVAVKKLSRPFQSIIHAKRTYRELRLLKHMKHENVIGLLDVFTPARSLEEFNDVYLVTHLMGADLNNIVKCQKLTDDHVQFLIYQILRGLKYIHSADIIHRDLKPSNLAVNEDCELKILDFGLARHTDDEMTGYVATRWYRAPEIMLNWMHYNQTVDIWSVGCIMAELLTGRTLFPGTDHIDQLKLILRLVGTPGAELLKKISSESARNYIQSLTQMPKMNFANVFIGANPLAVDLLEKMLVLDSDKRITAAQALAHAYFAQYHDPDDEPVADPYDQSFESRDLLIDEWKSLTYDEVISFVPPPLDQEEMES
T30 sequence (P22607 23-806): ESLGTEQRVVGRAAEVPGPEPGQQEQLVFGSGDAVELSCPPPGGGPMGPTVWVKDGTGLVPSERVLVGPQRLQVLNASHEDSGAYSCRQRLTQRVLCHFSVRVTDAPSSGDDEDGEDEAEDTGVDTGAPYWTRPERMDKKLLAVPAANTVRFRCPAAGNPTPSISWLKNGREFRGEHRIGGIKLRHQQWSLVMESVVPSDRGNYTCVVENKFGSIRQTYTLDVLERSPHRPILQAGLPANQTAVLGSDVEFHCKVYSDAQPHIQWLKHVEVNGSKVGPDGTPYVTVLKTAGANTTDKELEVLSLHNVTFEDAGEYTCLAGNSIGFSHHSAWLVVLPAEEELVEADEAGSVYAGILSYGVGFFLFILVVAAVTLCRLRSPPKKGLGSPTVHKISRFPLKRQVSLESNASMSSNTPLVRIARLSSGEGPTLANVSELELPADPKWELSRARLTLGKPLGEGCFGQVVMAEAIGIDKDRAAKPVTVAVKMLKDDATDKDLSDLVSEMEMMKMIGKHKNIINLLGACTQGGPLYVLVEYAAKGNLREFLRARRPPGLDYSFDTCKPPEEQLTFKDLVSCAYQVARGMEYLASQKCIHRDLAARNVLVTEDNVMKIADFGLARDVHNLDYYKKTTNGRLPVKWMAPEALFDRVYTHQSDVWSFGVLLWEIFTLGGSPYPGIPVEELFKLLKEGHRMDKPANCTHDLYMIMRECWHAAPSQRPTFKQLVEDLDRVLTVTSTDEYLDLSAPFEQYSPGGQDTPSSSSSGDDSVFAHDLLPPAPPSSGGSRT
T3 sequence (O00418 whole entry): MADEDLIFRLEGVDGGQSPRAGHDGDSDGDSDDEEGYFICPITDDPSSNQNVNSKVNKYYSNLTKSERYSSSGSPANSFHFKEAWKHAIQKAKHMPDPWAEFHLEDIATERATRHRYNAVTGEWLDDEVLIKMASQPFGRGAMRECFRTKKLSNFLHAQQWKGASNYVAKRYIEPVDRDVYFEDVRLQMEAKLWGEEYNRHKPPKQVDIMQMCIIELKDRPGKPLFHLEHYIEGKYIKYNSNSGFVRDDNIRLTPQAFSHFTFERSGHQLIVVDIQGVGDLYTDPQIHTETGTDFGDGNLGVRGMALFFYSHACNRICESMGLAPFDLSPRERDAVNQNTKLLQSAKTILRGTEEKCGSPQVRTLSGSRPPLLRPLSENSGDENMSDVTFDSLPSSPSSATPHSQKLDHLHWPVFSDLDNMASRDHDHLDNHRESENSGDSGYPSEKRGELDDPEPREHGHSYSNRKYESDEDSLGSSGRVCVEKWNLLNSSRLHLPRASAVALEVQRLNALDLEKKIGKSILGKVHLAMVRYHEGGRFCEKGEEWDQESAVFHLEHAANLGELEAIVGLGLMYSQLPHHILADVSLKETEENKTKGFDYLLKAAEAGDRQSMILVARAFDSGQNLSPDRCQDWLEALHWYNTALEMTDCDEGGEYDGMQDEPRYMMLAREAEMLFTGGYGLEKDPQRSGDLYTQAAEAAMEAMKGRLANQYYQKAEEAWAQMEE
T9 sequence (Q9HBY8 whole entry): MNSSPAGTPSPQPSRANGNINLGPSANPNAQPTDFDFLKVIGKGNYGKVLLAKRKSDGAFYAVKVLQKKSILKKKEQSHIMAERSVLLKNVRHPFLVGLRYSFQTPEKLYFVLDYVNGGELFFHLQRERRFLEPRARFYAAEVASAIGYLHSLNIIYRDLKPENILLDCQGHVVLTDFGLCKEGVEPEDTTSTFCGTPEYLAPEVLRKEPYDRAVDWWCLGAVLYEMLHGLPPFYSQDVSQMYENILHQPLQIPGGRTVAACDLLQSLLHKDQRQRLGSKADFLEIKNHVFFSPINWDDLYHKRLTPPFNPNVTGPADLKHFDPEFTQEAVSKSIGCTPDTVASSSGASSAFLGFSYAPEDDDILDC
T31 sequence (Q16816 whole entry): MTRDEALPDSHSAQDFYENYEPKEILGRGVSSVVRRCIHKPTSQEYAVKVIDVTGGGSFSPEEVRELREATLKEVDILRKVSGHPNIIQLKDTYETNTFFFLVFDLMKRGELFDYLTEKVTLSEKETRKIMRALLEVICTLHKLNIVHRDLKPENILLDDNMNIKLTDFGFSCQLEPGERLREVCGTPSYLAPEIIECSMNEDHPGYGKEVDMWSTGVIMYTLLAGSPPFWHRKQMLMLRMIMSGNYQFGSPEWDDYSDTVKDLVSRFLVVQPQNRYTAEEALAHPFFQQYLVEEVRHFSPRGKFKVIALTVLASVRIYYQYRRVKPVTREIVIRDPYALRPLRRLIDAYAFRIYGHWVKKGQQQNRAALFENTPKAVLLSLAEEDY
T28 sequence (Q9NYA1 whole entry): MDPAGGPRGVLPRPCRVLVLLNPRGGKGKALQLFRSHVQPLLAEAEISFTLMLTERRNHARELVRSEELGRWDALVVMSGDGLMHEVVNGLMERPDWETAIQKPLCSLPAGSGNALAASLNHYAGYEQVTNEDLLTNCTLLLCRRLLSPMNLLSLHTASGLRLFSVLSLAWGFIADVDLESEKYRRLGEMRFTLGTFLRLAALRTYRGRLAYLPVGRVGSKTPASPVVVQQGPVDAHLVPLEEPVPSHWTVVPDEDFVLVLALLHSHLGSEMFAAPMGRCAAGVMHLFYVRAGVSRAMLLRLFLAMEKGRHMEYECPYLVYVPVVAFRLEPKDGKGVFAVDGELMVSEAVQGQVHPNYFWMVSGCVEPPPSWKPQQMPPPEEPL
T29 sequence (P51813 whole entry): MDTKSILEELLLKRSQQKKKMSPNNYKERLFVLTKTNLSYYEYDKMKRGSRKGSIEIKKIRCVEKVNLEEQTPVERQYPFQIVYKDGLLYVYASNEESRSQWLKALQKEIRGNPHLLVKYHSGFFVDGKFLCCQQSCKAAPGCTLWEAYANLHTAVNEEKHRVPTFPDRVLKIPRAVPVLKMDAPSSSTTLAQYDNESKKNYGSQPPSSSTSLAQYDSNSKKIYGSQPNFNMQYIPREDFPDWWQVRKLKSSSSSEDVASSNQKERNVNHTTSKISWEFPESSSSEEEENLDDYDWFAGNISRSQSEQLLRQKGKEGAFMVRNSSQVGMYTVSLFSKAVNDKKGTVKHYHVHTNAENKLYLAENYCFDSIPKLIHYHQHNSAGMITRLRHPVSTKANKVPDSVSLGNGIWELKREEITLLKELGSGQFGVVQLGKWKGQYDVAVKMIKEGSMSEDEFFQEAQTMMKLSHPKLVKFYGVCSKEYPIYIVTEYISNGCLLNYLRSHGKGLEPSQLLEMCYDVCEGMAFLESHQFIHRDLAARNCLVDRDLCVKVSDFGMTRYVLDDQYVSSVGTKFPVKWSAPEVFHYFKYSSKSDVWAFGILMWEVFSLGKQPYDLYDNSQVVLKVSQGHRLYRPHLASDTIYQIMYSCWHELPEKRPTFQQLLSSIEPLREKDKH

Q: What does the source list for COc1cc(C(N)=O)nc(-c2cccc(C#C[C@]3(O)CCN(C)C3=O)c2)c1 [NIK SMI1]?
A: inhibition at 1 µM (Cot): 34.5%; inhibition at 1 µM (MLK1): -1%; inhibition at 1 µM (eEF-2K): 4%; inhibition at 1 µM (PAK6): 31.5%; inhibition at 1 µM (GRK6): 9%; inhibition at 1 µM (Rse): 12%; inhibition at 1 µM (GRK5): 0.5%; inhibition at 1 µM (IRAK1): 1.8%; inhibition at 1 µM (SGK2): 9.5%; inhibition at 1 µM (RSK1): 4.5%; inhibition at 1 µM (SGK1): 5%; inhibition at 1 µM (CLK2): 25%; inhibition at 1 µM (GRK3): 1.5%; inhibition at 1 µM (PRK1): 5.5%; inhibition at 1 µM (FGFR1): -5.5%; inhibition at 1 µM (P38_beta): 9%; inhibition at 1 µM (MKNK1): 2%; inhibition at 1 µM (CSK): 12.5%; inhibition at 1 µM (PI3K- G): -2.9%; inhibition at 1 µM (PAK3): -3.5%; inhibition at 1 µM (BrSK1): 13.5%; inhibition at 1 µM (PKC-epsilon): 2%; inhibition at 1 µM (PKC_zeta): 7%; inhibition at 1 µM (IKK_epsilon): 19%; inhibition at 1 µM (KDR): -1.5%; inhibition at 1 µM (p38_alpha): -7.5%; inhibition at 1 µM (Flt4): 9%; inhibition at 1 µM (SPHK1): 21.3%; inhibition at 1 µM (Bmx): -5%; inhibition at 1 µM (FGFR3): -3.5%; inhibition at 1 µM (PhK_gamm1): 6.5%; inhibition at 1 µM (CHK2): 4.5%
